In article PMC9871250, “Identification of an indole biodegradation gene cluster from Providencia rettgeri and its contribution in selectively biosynthesizing Tyrian purple” (Frontiers in Bioengineering and Biotechnology, 2023):

Biological target: T1, GS-D (Providencia rettgeri, UniProt A0ACG1W3V9)
T1 construct: gene KAH49_07450; full length, N-terminal 6xHis, pET28a in E. coli BL21(DE3), Ni-NTA
T1 sequence (A0ACG1W3V9 1-176): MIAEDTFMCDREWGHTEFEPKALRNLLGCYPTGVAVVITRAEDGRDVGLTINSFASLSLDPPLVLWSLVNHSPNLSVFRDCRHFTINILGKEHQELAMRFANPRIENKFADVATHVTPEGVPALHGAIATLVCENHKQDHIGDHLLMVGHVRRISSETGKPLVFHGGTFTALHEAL
Assay: NADH oxidation, absorbance at […] nm
Type: biochemical
Settings: pH 8.0, 30 °C, 250 μM NADH, 100 μM FAD

Compound: NC(=O)C1=CN([C@@H]2O[C@H](COP(=O)(O)OP(=O)(O)OC[C@H]3O[C@@H](n4cnc5c(N)ncnc54)[C@H](O)[C@@H]3O)[C@@H](O)[C@H]2O)C=CC1 [NADH]
- NADH oxidation, absorbance at 340 nm: oxidation of NADH demonstrated the flavin reductase activity of the GS-D reductase
